This is an account of results in ChEMBL document CHEMBL1158636, “Discovery of a novel sulfonamide-pyrazolopiperidine series as potent and efficacious gamma-secretase inhibitors (Part II)” (Bioorg Med Chem Lett, 2010).

Series [1] addresses Gamma-secretase (Homo sapiens) (UniProt Q96BI3+Q9NZ42+Q8WW43+P49768+Q92542+P49810). Briefly: Inhibition of gamma-secretase-mediated APP cleavage in human SNC cells by ELISA. In kind it is cell-based.
The nature of series [2]: Inhibition of gamma-secretase-mediated APP cleavage assessed as amyloid beta40 level after 2 hrs by ELISA. (An ELISA detects its analyte on a solid surface through an enzyme-linked reagent.)
Series [3] in a line: Inhibition of gamma-secretase-mediated notch cleavage after 2 hrs by ELISA.
For another series, the target named is Gamma-secretase. Kind of series: Inhibition of gamma-secretase-mediated notch cleavage in human SNC cells by ELISA. In kind it is cell-based.
The nature of series [4]: Oxidative metabolic stability in human liver microsomes assessed as compound remaining at 1 uM after 30 mins in presence of 1 mM NADPH. In kind it is ADME, Microsome. To be noted: liver microsomes, read-out: Stability. A general note: Microsomes from liver hold many membrane-bound enzymes, among them those of drug oxidation.

On to `O=C1c2[nH]ncc2C(C2CC2)N(S(=O)(=O)c2ccc(C(F)(F)F)cn2)C12CC2` (stereo in doubt; 16h), for which, in series [1], the ED50 is 1850 nM.
Take `O=C1c2[nH]ncc2C(C2CC2)N(S(=O)(=O)c2ccc(C(F)(F)F)nc2)C1c1cc(F)cc(F)c1` (racemic): the 50% inhibitory concentration (IC50) (in general, the concentration at which inhibition is half-maximal) in series [2] stood at 0.7 nM; in series [3] it was 17 nM; against Gamma-secretase it was 4000 nM. The ED50 in series [1] is over 1000 nM. The remaining at 0.5 h, 1 µM in series [4] was 9%.
As to `CC(C)(C)C1C(=O)c2[nH]ncc2C(C2CC2)N1S(=O)(=O)c1ccc(C(F)(F)F)nc1` (stereo in doubt; 3t), the ED50 in series [1] was 0.6 nM.
In series [1], `O=C1c2[nH]ncc2C(C2CC2)N(S(=O)(=O)c2ccc(C(F)(F)F)nc2)C12CC2` (stereo in doubt; 16e) registered an ED50 of 2680 nM.
Same read-out and setting: in the case of `O=C1c2[nH]ncc2C(C2CC2)N(S(=O)(=O)c2ccc(C(F)(F)F)nc2)C12CC2` (stereo in doubt; 16f) it was 4 nM; in that of `O=S(=O)(c1ccc(C(F)(F)F)nc1)N1C(C2CC2)c2cn[nH]c2C(F)(F)C12CC2` (stereo in doubt; 17b), 0.3 nM.
Take `O=C1c2[nH]ncc2C(C2CC2)N(S(=O)(=O)c2ccc(C(F)(F)F)cc2)C12CCCC2` (racemic): the IC50 in series [2] turned out to be 0.4 nM; in series [3], 8 nM; against Gamma-secretase, 235 nM. The ED50 in series [1] was determined as 2 nM. Further, in series [4], the remaining at 0.5 h, 1 µM was 3%.
Take `CC(C)(C)C1C(=O)c2[nH]ncc2C(C2CC2)N1S(=O)(=O)c1ccc(C(F)(F)F)nc1` (stereo in doubt; 3u): the ED50 in series [1] came to 16 nM.
Consider `O=C1c2[nH]ncc2C(C2CC2)N(S(=O)(=O)c2ccc(Cl)s2)C12CC2` (racemic), for which the IC50 in series [2] was 2 nM; in series [3], 18 nM; at Gamma-secretase, 576 nM. The ED50 in series [1] worked out at 7 nM. In series [4], the remaining at 0.5 h, 1 µM stood at 1%.
Taken in the same sequence, the figures for `COC[C@H]1C(=O)c2[nH]ncc2[C@@H](C2CC2)N1S(=O)(=O)c1ccc(C(F)(F)F)cc1` (relative stereo) were 3.2 nM, 126 nM, over 40000 nM, over 10000 nM and 14%.
Turning to `O=C1c2[nH]ncc2C(C2CC2)N(S(=O)(=O)c2ccc(C(F)(F)F)cn2)C12CC2` (racemic), the ED50 in series [1] turned out to be 87 nM.
Turning to `O=C1CN(S(=O)(=O)c2ccc(C(F)(F)F)cc2)[C@H](C2CC2)c2cn[nH]c21`, the IC50 in series [2] was 9.1 nM; in series [3] it was 354 nM; on Gamma-secretase it was over 40000 nM. This compound also had an ED50 in series [1] of over 10000 nM.
In the case of `CCC1c2cn[nH]c2C(=O)CN1S(=O)(=O)c1ccc(C(F)(F)F)cc1` (centres undefined), the IC50 in series [2] was 6.5 nM; against Gamma-secretase it was over 40000 nM. The same compound returned an ED50 in series [1] of over 10000 nM. Besides, in series [4], the remaining at 0.5 h, 1 µM was found to be 19%.
Turning to `O=C1c2[nH]ncc2C(C2CC2)N(S(=O)(=O)c2ccc(C(F)(F)F)cn2)C12CC2` (stereo in doubt; 16i), in series [1], the ED50 was determined as 26 nM.
Same read-out and setting: with `O=S(=O)(c1ccc(C(F)(F)F)nc1)N1C(C2CC2)c2cn[nH]c2C(F)(F)C12CC2` (stereo in doubt; 17c) the figure was 86 nM; with `O=S(=O)(c1ccc(C(F)(F)F)nc1)N1C(C2CC2)c2cn[nH]c2C(F)(F)C12CC2` (racemic), 0.5 nM.
With `C[C@@H]1C(=O)c2[nH]ncc2[C@H](C)N1S(=O)(=O)c1ccc(C(F)(F)F)nc1` (stereo in doubt), the IC50 in series [2] is 91 nM; in series [3], 2270 nM; at Gamma-secretase it was over 40000 nM. For the same compound, the ED50 in series [1] was over 10000 nM. In addition, the remaining at 0.5 h, 1 µM in series [4] was 62%.
In series [1], `O=C1c2[nH]ncc2C(C2CC2)N(S(=O)(=O)c2ccc(C(F)(F)F)nc2)C12CC2` (racemic) showed an ED50 of 7 nM.
